# Assay results taken from article PMC8524858, “Dual inhibition of αvβ6 and αvβ1 reduces fibrogenesis in lung tissue explants from patients with IPF” (Respiratory Research, 2021).
# System: bleomycin-challenged C57BL/6 mice
# Test: In vivo bleomycin mouse model of pulmonary fibrosis
# Settings: Day 7 to Day 21 after bleomycin
# Description: C57BL/6 mice (Charles River; Hollister, CA, USA) were administered 3 units/kg bleomycin (Teva; Toronto, ON, Canada) or vehicle (water) via oropharyngeal aspiration. Lung tissue and bronchioalveolar lavage (BAL) cells were collected after 14 or 21 days to evaluate Smad phosphorylation and collagen deposition.
# OHP levels and fractional synthesis rates were determined similar to that previously described.
# Formalin-fixed, paraffin-embedded mouse lung tissue sections underwent SHG imaging to characterize the quantity and quality of fibrillar collagen deposition using methods similar to that previously described.
# For pSmad3 and total Smad3 quantitation, lung tissues or bronchoalveolar lavage (BAL) cells were lysed in RIPA buffer with protease inhibitor cocktail (Thermo Fisher; #78442). Total protein concentration was normalized across lysates following quantitation by bicinchoninic acid protein assay (Thermo Fisher; #23225). MSD GOLD 96 Small Spot Streptavidin plates were rinsed with PBST, followed by incubation with 1 µg/ml of biotinylated anti-Smad2/3 antibody under agitation for 1 h. Following a second rinse, a 50:50 mix of unknown sample and PBST was added to duplicate wells. Following a 1 h incubation and another rinse, 1 µg/ml of sulfo-tag-labeled anti-pSmad3 or anti-Smad3 antibody was added and incubated for 1 h under agitation. After a final rinse, 1x read buffer was added and the plate was read using an MSD sector imager instrument (SECTOR S 600). pSmad3/Smad3 signal ratios were compared across time points to calculate fold changes.
# Male, 8-week-old C57BL/6 mice (Charles River; Hollister, CA, USA) were administered 3 U/kg bleomycin (Teva) or vehicle (water) via oropharyngeal aspiration while under anesthesia (ketamine/xylazine). […] Total lung weights were recorded, and right lobes were snap-frozen and stored at -80 °C. […]
# OHP levels in mouse lung tissue were determined similar to that previously described (E15) using the QuickZyme hydroxyproline assay kit (QuickZyme Biosciences; Leiden, Netherlands). […] Hydrolysate was adjusted to 4 M HCl and analyzed for OHP concentrations in a 96-well format, according to manufacturer’s instruction. Absorbance was read at 570 nm with an Infinite M200 PRO microtiter plate reader (Tecan; Crailsheim, Germany) and total lung OHP levels calculated from OHP concentrations (µg OHP/mg tissue) by normalizing to total lung weight. […]
# Formalin-fixed paraffin embedded sections prepared from mouse lung tissue underwent SHG imaging to characterize both the quantity and quality of fibrillar collagen deposition using methods similar to that previously described (E16). […]
smiles,measurement,setting,value
COCCN(CCCCc1ccc2c(n1)NCCC2)CC[C@H](Nc1ncnc2ccccc12)C(=O)O [PLN-74809],Smad3 phosphorylation in lung tissue,"oral 100, 250, 500 mg/kg BID",dose-dependently blocked
same,interstitial fibrillar collagen deposition (SHG imaging),"oral 100, 250, 500 mg/kg BID, vs vehicle","dose-dependent, significant reduction"
same,total pulmonary hydroxyproline levels,"oral 100-500 mg/kg BID, vs vehicle (Fig. S3A)",dose-dependently reduced
same,hydroxyproline deposition rate (2H incorporation),"oral 100-500 mg/kg BID, vs vehicle (Fig. S3B)",dose-dependently reduced
